The results in this text go back to article PMC6832265 (Molecules, 2019).

Assay [1] addresses T1, Tdp1 (Homo sapiens, UniProt Q9NUW8).
T1 construct: made in house; host or cells: Escherichia coli
Description: Real-time detection of Tdp1 activity (5'-FAM/3'-BHQ1 oligonucleotide biosensor). It counts as biochemical. The following applies: 1.5 nM Tdp1, 50 nM oligonucleotide substrate, 26 °C. The source says: We first studied the inhibition potency of our compounds to Tdp1 by using a real-time oligonucleotide biosensor assay that we have previously developed. The assay was based on the ability of Tdp1 to remove the fluorescence quencher from the 3’-end of DNA. The substrate is a 16-mer single-stranded oligonucleotide containing both a 5’-FAM fluorophore and a 3’-BHQ1 quencher.
A fluorophore quencher-coupled DNA-biosensor for real-time measurement of Tdp1 cleavage activity was recently designed in our laboratory. The biosensor is a 16-mer single-stranded oligonucleotide containing both a 5’-FAM fluorophore donor and a quenching 3’-BHQ1 moiety.
Recombinant protein Tdp1 was expressed in EsCherichia coli (pET 16B plasmid containing Tdp1 cDNA provided by Dr. K.W. Caldecott, University of Sussex, United Kingdom) and isolated as described. The reaction mixture in a final volume 200 μL contained Tdp1 reaction buffer (50 mM Tris-HCl, 50 mM NaCl, 7 mM β-mercaptoethanol), 50 nM oligonucleotide substrate, and varied concentrations of potential inhibitor. Purified Tdp1 was added in a final concentration of 1.5 nM.
The reaction mixtures were incubated at a constant temperature of 26 °C in a POLARstar OPTIMA fluorimeter, BMG LABTECH, GmbH, to measure fluorescence intensity every minute (Ex485/Em520 nm). Tdp1 inhibition was calculated by comparing the rate of increase in fluorescence of the biosensor in the presence of the compound to that of DMSO (1.5%) control wells. The measurements were carried out in at least two independent experiments. IC50 values were determined using a six-point concentration response curve. The data were imported into the MARS Data Analysis 2.0 program (BMG LABTECH) and the slope during the linear phase (data from 0 to 7 min) was calculated.

The target of assay [2] is T2, recombinant Tdp1 (residues 149–608) (Homo sapiens, UniProt Q9NUW8).
T2 construct: recombinant Tdp1 (residues 149–608) was obtained from GenScript; host or cells: E. coli BL21(DE3)
T2 sequence (Q9NUW8 149-608): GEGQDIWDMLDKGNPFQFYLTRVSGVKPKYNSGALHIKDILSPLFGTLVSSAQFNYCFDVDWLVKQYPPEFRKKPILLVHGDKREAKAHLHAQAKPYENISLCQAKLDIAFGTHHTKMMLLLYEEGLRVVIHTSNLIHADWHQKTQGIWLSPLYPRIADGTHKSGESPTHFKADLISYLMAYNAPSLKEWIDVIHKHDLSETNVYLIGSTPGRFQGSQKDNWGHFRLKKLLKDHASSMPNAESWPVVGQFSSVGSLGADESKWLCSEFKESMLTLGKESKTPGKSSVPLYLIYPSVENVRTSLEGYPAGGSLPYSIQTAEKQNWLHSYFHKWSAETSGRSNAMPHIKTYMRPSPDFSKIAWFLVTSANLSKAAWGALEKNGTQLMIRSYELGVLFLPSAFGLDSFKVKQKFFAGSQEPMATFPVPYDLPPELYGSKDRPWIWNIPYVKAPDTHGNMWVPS
As to the kind of experiment: Intrinsic tryptophan fluorescence quenching binding assay. The following applies: 10 µM Tdp1, 20 mM Tris, 250 mM NaCl, pH 8; triplicate. As to the method: The binding of the synthesized compounds to recombinant Tdp1 was also tested (Table 1 and Table 2) by using an intrinsic tryptophan fluorescence quenching assay. […] As our compounds are aromatic in nature, there is a possibility that they may bind to both the active site as well as non-specifically to the DNA/peptide binding pockets. Nonetheless, our results confirmed that the compounds were indeed binders of Tdp1, thus complementing our inhibition data.
pET-28a(+) plasmid encoding recombinant Tdp1 (residues 149–608) was obtained from GenScript. E. coli BL21(DE3) was used for recombinant protein production. Protein production was induced with 1 mM IPTG at 28 °C with overnight incubation. Tdp1 was purified using affinity and size exclusion chromatography. Fluorescence was measured using a PerkinElmer EnSpire Multimode Reader. Tdp1 concentration was 10 μM with varying compound concentrations. The buffer was 20 mM Tris and 250 mM NaCl (pH 8). The excitation wavelength was 280 nm and intrinsic fluorescence was measured at 350 nm. Control experiments with Tdp1 or the compound on its own were also conducted. Background fluorescence arising from the compounds was subtracted from the final spectrum. The total volume per well was 30 μL. The dissociation constant (KD) was calculated using Equation (1), which takes non-specific binding into account. y = Bmaxx/(KD + x) + Nsx(1) where y denotes the changes in fluorescence intensity; x denotes the concentration of the compounds; Bmax denotes the maximum changes in fluorescence intensity; and Ns is a scaling factor for non-specific binding. Experiments were conducted in triplicate.

T1 sequence (Q9NUW8 whole entry): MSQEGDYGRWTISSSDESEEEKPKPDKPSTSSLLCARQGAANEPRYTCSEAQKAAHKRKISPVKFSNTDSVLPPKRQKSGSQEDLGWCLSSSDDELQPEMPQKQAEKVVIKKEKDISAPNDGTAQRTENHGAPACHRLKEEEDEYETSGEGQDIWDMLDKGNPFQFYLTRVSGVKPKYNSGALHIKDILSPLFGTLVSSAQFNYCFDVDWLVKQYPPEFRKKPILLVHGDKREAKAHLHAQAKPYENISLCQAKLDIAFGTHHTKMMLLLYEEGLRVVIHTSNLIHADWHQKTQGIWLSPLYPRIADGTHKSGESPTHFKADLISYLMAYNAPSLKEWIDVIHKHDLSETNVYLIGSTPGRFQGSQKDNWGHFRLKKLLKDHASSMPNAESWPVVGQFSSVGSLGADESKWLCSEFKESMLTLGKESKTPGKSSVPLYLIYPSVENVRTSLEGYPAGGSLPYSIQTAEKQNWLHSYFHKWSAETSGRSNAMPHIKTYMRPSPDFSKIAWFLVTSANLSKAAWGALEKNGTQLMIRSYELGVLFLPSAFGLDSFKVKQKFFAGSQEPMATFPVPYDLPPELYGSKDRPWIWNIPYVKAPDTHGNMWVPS

As for `COc1ccc(/C=N/Nc2nc(-c3c(O)c(C)c(O)c4c3OC3=CC(O)=C(C(C)=O)C(=O)[C@]34C)cs2)cc1COc1ccccc1F` [(−)-17c, (2S)-4-Acetyl-10-{2-[(E)-2-({3-[(2-fluorophenoxy)methyl]-4-methoxyphenyl}methylidene)hydrazin-1-yl]-1,3-thiazol-4-yl}-5,11,13-trihydroxy-2,12-dimethyl-8-oxatricyclo[7.4.0.0^2,7]trideca-1(9),4,6,10,12-pentaen-3-one], in assay [1], the IC50 stood at 37 ± 10 nM. Moreover, in assay [2], the Kd amounted to 74000 ± 4000 nM.

Consider “(2S)-4-Acetyl-5,11,13-trihydroxy-2,12-dimethyl-10-{2-[(E)-2-[(1H-3-methyl-indole-3-yl) methylidene]hydrazin-1-yl]-1,3-thiazol-4-yl}-8-oxatricyclo[7.4.0.0^2,7]trideca-1(9),4,6,10,12-pentaen-3-one [(−)-16q]”, for which, in assay [1], half-maximal inhibition (IC50) was put at 81 ± 20 nM. Also, in assay [2], the Kd was found to be 58000 ± 4000 nM. Take `COc1ccc(/C=N/Nc2nc(-c3c(O)c(C)c(O)c4c3OC3=CC(O)=C(C(C)=O)C(=O)[C@]34C)cs2)cc1COc1ccc(F)cc1` [(−)-17a, (2S)-4-Acetyl-10-{2-[(E)-2-({3-[(4-fluorophenoxy)methyl]-4-methoxyphenyl}methylidene)hydrazin-1-yl]-1,3-thiazol-4-yl}-5,11,13-trihydroxy-2,12-dimethyl-8-oxatricyclo[7.4.0.0^2,7]trideca-1(9),4,6,10,12-pentaen-3-one]: the midpoint of inhibition in assay [1], the IC50, lay at 54 ± 3 nM. On the same count and under the same terms, the same measure for `COc1ccc(/C=N/Nc2nc(-c3c(O)c(C)c(O)c4c3OC3=CC(O)=C(C(C)=O)C(=O)[C@]34C)cs2)cc1CN1CCN(c2ccc(F)cc2)CC1` [(−)-17i, (2S)-4-Acetyl-10-{2-[(E)-2-[(3-{[4-(4-fluorophenyl)piperazin-1-yl]methyl}-4-methoxyphenyl)methylidene]hydrazin-1-yl]-1,3-thiazol-4-yl}-5,11,13-trihydroxy-2,12-dimethyl-8-oxatricyclo[7.4.0.0^2,7]trideca-1(9),4,6,10,12-pentaen-3-one]: 59 ± 5 nM; for `COc1ccc(/C=N/Nc2nc(-c3c(O)c(C)c(O)c4c3OC3=CC(O)=C(C(C)=O)C(=O)[C@]34C)cs2)cc1COc1cccc(F)c1` [(−)-17b, (2S)-4-Acetyl-10-{2-[(E)-2-({3-[(3-fluorophenoxy)methyl]-4-methoxyphenyl}methylidene)hydrazin-1-yl]-1,3-thiazol-4-yl}-5,11,13-trihydroxy-2,12-dimethyl-8-oxatricyclo[7.4.0.0^2,7]trideca-1(9),4,6,10,12-pentaen-3-one]: 78 ± 3 nM. Still for that read-out and setting: the same measure for `CC(=O)C1=C(O)C=C2Oc3c(-c4csc(N/N=C/c5ccc([N+](=O)[O-])s5)n4)c(O)c(C)c(O)c3[C@]2(C)C1=O` [(−)-16d, (2S)-4-Acetyl-5,11,13-trihydroxy-2,12-dimethyl-10-{2-[(E)-2-[(5-nitrothiophen-2-yl)methylidene]hydrazin-1-yl]-1,3-thiazol-4-yl}-8-oxatricyclo[7.4.0.0^2,7]trideca-1(9),4,6,10,12-pentaen-3-one]: 142 ± 4 nM. `COc1ccc(/C=N/Nc2nc(-c3c(O)c(C)c(O)c4c3OC3=CC(O)=C(C(C)=O)C(=O)[C@]34C)cs2)cc1COc1ccc(Cl)c(C)c1` [(−)-17h, (2S)-4-Acetyl-10-{2-[(E)-2-({3-[(4-chloro-3-methylphenoxy)methyl]-4-methoxyphenyl}methylidene)hydrazin-1-yl]-1,3-thiazol-4-yl}-5,11,13-trihydroxy-2,12-dimethyl-8-oxatricyclo[7.4.0.0^2,7]trideca-1(9),4,6,10,12-pentaen-3-one] gave an IC50 in assay [1] of 48 ± 2 nM. Same read-out and setting: in the case of `CC(=O)C1=C(O)C=C2Oc3c(-c4csc(N/N=C/c5sccc5C)n4)c(O)c(C)c(O)c3[C@]2(C)C1=O` [(−)-16i, (2S)-4-Acetyl-5,11,13-trihydroxy-2,12-dimethyl-10-{2-[(E)-2-[(3-methylthiophen-2-yl)methylidene]hydrazin-1-yl]-1,3-thiazol-4-yl}-8-oxatricyclo[7.4.0.0^2,7]trideca-1(9),4,6,10,12-pentaen-3-one] it was 121 ± 25 nM. Same read-out and setting: in the case of `CC(=O)C1=C(O)C=C2Oc3c(-c4csc(N/N=C/c5ccncc5)n4)c(O)c(C)c(O)c3[C@]2(C)C1=O` [(−)-16a, 4-[(1E)-(2-{4-[(1S)-12-Acetyl-3,5,11-trihydroxy-1,4-dimethyl-13-oxo-8-oxatricyclo[7.4.0.0^2,7]trideca-2(7),3,5,9,11-pentaen-6-yl]-1,3-thiazol-2-yl}hydrazin-1-ylidene)methyl]pyridin-1-ium bromide] it was 139 ± 38 nM.

As to `CC(=O)C1=C(O)C=C2Oc3c(-c4csc(N/N=C/c5ccc[nH]5)n4)c(O)c(C)c(O)c3[C@@]2(C)C1=O` [(+)-16m, (2R)-4-Acetyl-5,11,13-trihydroxy-2,12-dimethyl-10-{2-[(E)-2-[(1H-pyrrol-2-yl)methylidene] hydrazin-1-yl]-1,3-thiazol-4-yl}-8-oxatricyclo[7.4.0.0^2,7]trideca-1(9),4,6,10,12-pentaen-3-one], the IC50 in assay [1] was found to be 188 ± 3 nM. Same read-out and setting: in the case of `CC(=O)C1=C(O)C=C2Oc3c(-c4csc(N/N=C/c5ccc(C)s5)n4)c(O)c(C)c(O)c3[C@@]2(C)C1=O` [(+)-16e, (2R)-4-Acetyl-5,11,13-trihydroxy-2,12-dimethyl-10-{2-[(E)-2-[(5-methylthiophen-2-yl)methylidene]hydrazin-1-yl]-1,3-thiazol-4-yl}-8-oxatricyclo[7.4.0.0^2,7]trideca-1(9),4,6,10,12-pentaen-3-one] it was 91 ± 7 nM; in that of `CC(=O)C1=C(O)C=C2Oc3c(-c4csc(N/N=C/c5cc(Br)cs5)n4)c(O)c(C)c(O)c3[C@@]2(C)C1=O` [(+)-16h, (2R)-4-Acetyl-5,11,13-trihydroxy-2,12-dimethyl-10-{2-[(E)-2-[(4-bromothiophen-2-yl)methylidene]hydrazin-1-yl]-1,3-thiazol-4-yl}-8-oxatricyclo[7.4.0.0^2,7]trideca-1(9),4,6,10,12-pentaen-3-one], 70 ± 18 nM. Same read-out and setting: in the case of `COc1ccc(/C=N/Nc2nc(-c3c(O)c(C)c(O)c4c3OC3=CC(O)=C(C(C)=O)C(=O)[C@]34C)cs2)cc1CN1CCN(c2ccccc2OC)CC1` [(−)-17j, (2S)-4-Acetyl-10-{2-[(E)-2-[(3-{[4-(2-methoxyphenyl)piperazin-1-yl]methyl}-4-methoxyphenyl)methylidene]hydrazin-1-yl]-1,3-thiazol-4-yl}-5,11,13-trihydroxy-2,12-dimethyl-8-oxatricyclo[7.4.0.0^2,7]trideca-1(9),4,6,10,12-pentaen-3-one] it was 71 ± 15 nM; in that of `CC(=O)C1=C(O)C=C2Oc3c(-c4csc(N/N=C/c5c[nH]c6ccccc56)n4)c(O)c(C)c(O)c3[C@]2(C)C1=O` [(−)-16p, (2S)-4-Acetyl-5,11,13-trihydroxy-2,12-dimethyl-10-{2-[(E)-2-[(1H-indole-3-yl)methylidene] hydrazin-1-yl]-1,3-thiazol-4-yl}-8-oxatricyclo[7.4.0.0^2,7]trideca-1(9),4,6,10,12-pentaen-3-one], 57 ± 1 nM.

In turn, `CC(=O)C1=C(O)C=C2Oc3c(-c4csc(N/N=C/c5sccc5C)n4)c(O)c(C)c(O)c3[C@@]2(C)C1=O` [(+)-16i, (2R)-4-Acetyl-5,11,13-trihydroxy-2,12-dimethyl-10-{2-[(E)-2-[(3-methylthiophen-2-yl)methylidene]hydrazin-1-yl]-1,3-thiazol-4-yl}-8-oxatricyclo[7.4.0.0^2,7]trideca-1(9),4,6,10,12-pentaen-3-one] showed an IC50 in assay [1] of 72 ± 3 nM. As for `CC(=O)C1=C(O)C=C2Oc3c(-c4csc(N/N=C/c5ccccn5)n4)c(O)c(C)c(O)c3[C@]2(C)C1=O` [(−)-16b, 2-[(1E)-(2-{4-[(1S)-12-Acetyl-3,5,11-trihydroxy-1,4-dimethyl-13-oxo-8-oxatricyclo [7.4.0.0^2,7]trideca-2(7),3,5,9,11-pentaen-6-yl]-1,3-thiazol-2-yl}hydrazin-1-ylidene)methyl]pyridin-1-ium bromide], the IC50 in assay [1] was found to be 1480 ± 265 nM.

Broadly, the IC50 is the concentration at which inhibition is half-maximal. A lower IC50 goes with greater potency. A word on the Kd: it is the concentration at which binding is half-saturated.
